Data taken from BindingDB's records for doi:10.1124/jpet.301.3.1166 (University of North Carolina, 2002).
Where “and” joins values, the source holds several entries; their conditions need not be identical. Equal entries are not always repeated.

Experiments:
[1] = target: D(2) dopamine receptor (Rattus norvegicus, UniProt P61169)
[2] = target: D(1A) dopamine receptor (Rattus norvegicus, UniProt P18901)
Chain of D(1A) dopamine receptor (P18901 whole entry): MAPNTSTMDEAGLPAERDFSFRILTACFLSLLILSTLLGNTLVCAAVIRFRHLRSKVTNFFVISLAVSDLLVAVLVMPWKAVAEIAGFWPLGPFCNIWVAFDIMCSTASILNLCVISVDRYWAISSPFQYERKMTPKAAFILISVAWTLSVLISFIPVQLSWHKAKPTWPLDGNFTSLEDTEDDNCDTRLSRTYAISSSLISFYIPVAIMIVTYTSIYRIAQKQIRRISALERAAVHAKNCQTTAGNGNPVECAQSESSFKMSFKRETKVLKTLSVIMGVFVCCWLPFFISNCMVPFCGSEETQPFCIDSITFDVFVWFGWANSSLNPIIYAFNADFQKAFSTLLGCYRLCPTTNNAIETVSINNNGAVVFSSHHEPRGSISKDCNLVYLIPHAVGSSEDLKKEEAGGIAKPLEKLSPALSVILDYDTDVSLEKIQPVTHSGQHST

Chain of D(2) dopamine receptor (P61169 whole entry): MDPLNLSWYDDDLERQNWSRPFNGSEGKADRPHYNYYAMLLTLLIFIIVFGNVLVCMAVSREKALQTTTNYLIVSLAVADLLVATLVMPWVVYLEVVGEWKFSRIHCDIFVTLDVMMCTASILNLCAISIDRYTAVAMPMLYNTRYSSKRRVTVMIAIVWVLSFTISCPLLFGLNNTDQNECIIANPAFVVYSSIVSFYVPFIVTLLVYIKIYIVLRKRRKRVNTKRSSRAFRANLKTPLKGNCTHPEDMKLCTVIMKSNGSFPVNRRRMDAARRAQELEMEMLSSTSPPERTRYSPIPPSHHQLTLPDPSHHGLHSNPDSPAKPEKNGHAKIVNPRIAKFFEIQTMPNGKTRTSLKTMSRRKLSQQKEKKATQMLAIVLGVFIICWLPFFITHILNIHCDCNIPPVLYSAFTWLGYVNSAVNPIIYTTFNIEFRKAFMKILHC

With `CCCN1Cc2ccccc2[C@@H]2c3cc(O)c(O)cc3CC[C@H]21` [N-n-propyldihydrexidine, N-Pr-DHX] the Ki [1] was 6.5 nM and 20 nM and the Ki [2] was 320 nM.
